Results reported in patent publication US8778621B2, “Phosphodiesterase 4D7 as marker for malignant, hormone-sensitive prostate cancer” (Koninklijke Philips N.V., priority 2009, dated 2014).
Like-named read-outs stand apart in the source and are kept apart here.

What was measured:
[1] = tested on: LNCaP prostate cancer cells; experiment: MTT growth assay, A590 Abs end-point; type: cell-based; settings: Homo sapiens
Procedure: The growth data is expressed as a percentage of as a percentage of the “untreated” A590 Abs reading after 48 hours. The cells were assayed without the presence of androgens.
For the MTT growth assay LNCaP cells were grown at 37° C., 5% CO2, from a seeding value of 5000 cells. The final plating volume was 200 μl. The proliferation assay was obtained from Promega (Cat no G3582). The growth data were obtained during A590 Abs measurements. Measurements were conducted 48 hours after the initial plating. The cells were assayed without the presence of androgens. The significance of final A590 readings was calculated using T-Test of Triplicate Values only. […] The level of average inhibition of cell proliferation is around 50%, which would lead to an IC50 of the compound of ˜10 μM. […]

[2] = target: cAMP phosphodiesterase (PDE4); settings: cited from earlier work
[3] = tested on: LNCaP prostate cancer cells; experiment: Xcelligence assay, real time electrical impedance measurement of cell growth; type: cell-based; settings: Homo sapiens
Procedure: The growth data is expressed as a percentage of “untreated” slope value obtained during real time electrical impedance measurements. Measurements were conducted 12 hours after the initial plating down phase of the assay, i.e. 12 hours-60 hours—so as to examine proliferative potential and not morphological change. The cells were assayed without the presence of androgens.
For the Xcelligence assay LNCaP cells were grown at 37° C., 5% CO2, from a seeding value of 5000 cells. The final plating volume was 200 μl. E-Plate 96 well plates were obtained from Roche (Cat No 05232368001). The growth data were obtained during real time electrical impedance measurements. Measurements were conducted 12 hours after the initial plating down phase of the assay, i.e. 12 hours-60 hours—so as to examine proliferative potential and not morphological change. The cells were assayed without the presence of androgens. The significance of differential growth rates were calculated using T-Test of Triplicate Values only. […] The level of average inhibition of cell proliferation is around 50%, which would lead to an IC50 of the compound of ˜10 μM. Compared to an in vitro IC50 for 50% inhibition of PDE4 in vitro of ˜2 μm, an in vivo IC50 of 10 μM let us conclude that the proliferation inhibition effect is largely due to its PDE4 activity.

[4] = in vivo; cited from earlier work
[5] = target: [3H]-rolipram binding to rat brain; settings: read-out: IC50 for inhibition of [3H]-rolipram binding to rat brain; cited from earlier work
PDEXA = PDEXA (Homo sapiens, UniProt Q9Y233); settings: cited from earlier work
PDEIXA = PDEIXA (Homo sapiens, UniProt O76083); settings: cited from earlier work
PDEVA = PDEVA (Homo sapiens, UniProt O76074); settings: cited from earlier work
PDEXIA = PDEXIA (Homo sapiens, UniProt Q9HCR9); settings: cited from earlier work
PDEVIIB = PDEVIIB (Homo sapiens, UniProt Q9NP56); settings: cited from earlier work
PDEIIIB = PDEIIIB (Homo sapiens, UniProt Q13370); settings: cited from earlier work
PDEVIIIA = PDEVIIIA (Homo sapiens, UniProt O60658); settings: cited from earlier work
PDEIB = PDEIB (Homo sapiens, UniProt Q01064); settings: cited from earlier work
PDEIIA = PDEIIA (Homo sapiens, UniProt O00408); settings: cited from earlier work
lung PDE2 = target: T1, lung PDE2; settings: cited from earlier work
T1 construct: from tissue; host or cells: lung

[6] = tested on: isolated human peripheral blood monocytes, eosinophils and T cells; settings: cited from earlier work
human lung PDE4 = settings: cited from earlier work
heart PDE3 = settings: cited from earlier work
platelet PDE-V = target: T2, platelet PDE-V (Homo sapiens, UniProt O76074); settings: cited from earlier work
T2 construct: from tissue; host or cells: platelets

lung PDE1 = settings: cited from earlier work
[7] = in vivo; cited from earlier work; remark: listed apart in the source
[8] = PDE4 inhibitors, target not given, read-out: IC 50 (Table of Inhibitors)

Sequence of PDEIXA (O76083 whole entry): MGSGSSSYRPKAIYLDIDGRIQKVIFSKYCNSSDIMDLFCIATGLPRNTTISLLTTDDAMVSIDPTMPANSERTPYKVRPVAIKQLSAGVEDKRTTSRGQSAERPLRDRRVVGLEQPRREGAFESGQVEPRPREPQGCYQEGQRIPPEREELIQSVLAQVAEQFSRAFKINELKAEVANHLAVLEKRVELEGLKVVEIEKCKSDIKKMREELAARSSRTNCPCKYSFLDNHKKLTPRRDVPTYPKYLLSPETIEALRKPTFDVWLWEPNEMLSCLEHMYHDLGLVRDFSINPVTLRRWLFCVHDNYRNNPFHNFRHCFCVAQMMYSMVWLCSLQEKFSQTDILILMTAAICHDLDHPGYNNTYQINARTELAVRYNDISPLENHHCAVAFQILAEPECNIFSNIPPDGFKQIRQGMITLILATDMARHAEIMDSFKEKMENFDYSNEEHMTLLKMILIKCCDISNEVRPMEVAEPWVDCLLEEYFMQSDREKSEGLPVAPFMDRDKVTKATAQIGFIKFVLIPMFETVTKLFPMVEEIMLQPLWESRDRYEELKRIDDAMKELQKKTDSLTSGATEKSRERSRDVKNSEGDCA
Sequence of PDEIB (Q01064 whole entry): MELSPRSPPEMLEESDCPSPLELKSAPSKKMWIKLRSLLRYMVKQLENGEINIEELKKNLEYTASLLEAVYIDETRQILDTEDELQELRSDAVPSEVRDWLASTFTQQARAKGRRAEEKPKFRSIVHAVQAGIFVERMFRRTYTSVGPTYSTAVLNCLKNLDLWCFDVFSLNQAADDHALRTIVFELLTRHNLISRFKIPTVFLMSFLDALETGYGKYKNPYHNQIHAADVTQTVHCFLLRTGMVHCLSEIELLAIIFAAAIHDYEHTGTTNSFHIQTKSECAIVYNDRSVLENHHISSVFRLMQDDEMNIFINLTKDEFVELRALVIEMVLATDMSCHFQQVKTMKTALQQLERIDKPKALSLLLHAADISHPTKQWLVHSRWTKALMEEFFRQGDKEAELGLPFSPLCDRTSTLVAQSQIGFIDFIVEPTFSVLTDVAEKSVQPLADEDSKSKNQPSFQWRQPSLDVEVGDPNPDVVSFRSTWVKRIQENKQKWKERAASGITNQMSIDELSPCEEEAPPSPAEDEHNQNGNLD
Sequence of PDEXA (Q9Y233 whole entry): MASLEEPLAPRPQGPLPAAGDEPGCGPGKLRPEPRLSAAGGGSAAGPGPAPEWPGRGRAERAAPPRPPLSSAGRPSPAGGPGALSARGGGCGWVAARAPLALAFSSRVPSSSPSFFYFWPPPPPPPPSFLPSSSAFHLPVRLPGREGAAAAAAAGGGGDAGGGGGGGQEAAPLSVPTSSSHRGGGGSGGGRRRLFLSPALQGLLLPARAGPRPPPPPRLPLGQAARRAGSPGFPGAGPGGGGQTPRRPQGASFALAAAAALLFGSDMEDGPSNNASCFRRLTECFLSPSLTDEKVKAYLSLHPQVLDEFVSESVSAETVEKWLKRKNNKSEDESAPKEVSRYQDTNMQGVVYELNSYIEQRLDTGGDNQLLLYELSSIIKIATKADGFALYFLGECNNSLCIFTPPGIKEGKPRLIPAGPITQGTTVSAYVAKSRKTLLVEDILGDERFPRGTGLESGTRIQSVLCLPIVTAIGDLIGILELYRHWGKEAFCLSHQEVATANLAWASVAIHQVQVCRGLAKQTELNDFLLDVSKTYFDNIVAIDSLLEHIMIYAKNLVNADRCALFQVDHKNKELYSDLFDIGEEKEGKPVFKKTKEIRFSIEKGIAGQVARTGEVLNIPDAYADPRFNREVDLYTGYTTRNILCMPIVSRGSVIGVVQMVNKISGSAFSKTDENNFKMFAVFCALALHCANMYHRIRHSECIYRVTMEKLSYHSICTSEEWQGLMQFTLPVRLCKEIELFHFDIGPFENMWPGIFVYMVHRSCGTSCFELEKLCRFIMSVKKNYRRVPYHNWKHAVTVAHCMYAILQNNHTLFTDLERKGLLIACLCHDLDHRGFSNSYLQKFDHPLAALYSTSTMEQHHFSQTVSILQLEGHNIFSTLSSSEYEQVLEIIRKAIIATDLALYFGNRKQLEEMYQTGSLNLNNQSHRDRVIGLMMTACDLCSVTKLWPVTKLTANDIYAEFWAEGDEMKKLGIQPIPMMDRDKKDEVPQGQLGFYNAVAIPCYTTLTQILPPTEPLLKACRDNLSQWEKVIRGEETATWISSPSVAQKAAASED
Sequence of PDEVIIB (Q9NP56 whole entry): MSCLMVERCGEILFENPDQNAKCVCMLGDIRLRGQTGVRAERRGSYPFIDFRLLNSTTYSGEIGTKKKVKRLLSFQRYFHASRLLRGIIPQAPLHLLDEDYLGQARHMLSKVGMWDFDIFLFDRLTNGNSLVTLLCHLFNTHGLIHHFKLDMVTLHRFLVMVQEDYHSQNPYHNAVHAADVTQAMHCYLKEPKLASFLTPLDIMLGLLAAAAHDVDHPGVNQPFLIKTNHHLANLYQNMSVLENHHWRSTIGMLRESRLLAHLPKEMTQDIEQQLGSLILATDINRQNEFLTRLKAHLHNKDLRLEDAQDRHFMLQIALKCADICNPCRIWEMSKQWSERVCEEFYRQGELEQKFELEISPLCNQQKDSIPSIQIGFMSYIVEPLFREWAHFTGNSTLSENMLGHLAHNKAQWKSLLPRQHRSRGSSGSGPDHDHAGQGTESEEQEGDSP
Sequence of PDEIIIB (Q13370 whole entry): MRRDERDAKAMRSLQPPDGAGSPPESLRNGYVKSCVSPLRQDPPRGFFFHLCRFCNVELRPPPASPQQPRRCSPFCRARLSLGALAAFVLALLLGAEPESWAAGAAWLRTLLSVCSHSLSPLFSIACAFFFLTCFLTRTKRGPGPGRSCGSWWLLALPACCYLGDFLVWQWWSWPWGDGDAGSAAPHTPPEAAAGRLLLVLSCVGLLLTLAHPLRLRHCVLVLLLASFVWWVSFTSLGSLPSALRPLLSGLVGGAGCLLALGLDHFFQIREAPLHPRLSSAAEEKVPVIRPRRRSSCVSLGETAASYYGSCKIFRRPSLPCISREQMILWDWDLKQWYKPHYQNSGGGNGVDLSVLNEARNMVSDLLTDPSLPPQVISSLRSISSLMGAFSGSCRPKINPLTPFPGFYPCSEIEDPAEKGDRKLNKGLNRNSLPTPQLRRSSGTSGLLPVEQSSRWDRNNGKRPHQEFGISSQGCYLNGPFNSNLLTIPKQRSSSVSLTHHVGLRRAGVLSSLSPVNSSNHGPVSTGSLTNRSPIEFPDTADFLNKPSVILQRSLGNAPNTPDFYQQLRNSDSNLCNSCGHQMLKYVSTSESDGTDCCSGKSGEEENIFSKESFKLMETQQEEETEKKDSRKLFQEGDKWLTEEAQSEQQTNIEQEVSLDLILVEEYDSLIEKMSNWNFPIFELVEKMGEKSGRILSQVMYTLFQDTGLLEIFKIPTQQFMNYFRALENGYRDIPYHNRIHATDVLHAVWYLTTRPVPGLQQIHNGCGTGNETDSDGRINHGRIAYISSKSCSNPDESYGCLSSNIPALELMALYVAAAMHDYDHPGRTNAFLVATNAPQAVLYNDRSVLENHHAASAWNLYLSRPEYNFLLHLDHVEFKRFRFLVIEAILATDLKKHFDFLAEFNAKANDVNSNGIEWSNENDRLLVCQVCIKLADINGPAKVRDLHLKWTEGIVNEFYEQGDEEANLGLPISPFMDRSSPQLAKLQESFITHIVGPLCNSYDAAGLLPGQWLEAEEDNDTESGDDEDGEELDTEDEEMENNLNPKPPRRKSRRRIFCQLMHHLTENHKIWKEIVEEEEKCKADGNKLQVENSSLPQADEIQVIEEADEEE
Sequence of PDEXIA (Q9HCR9 whole entry): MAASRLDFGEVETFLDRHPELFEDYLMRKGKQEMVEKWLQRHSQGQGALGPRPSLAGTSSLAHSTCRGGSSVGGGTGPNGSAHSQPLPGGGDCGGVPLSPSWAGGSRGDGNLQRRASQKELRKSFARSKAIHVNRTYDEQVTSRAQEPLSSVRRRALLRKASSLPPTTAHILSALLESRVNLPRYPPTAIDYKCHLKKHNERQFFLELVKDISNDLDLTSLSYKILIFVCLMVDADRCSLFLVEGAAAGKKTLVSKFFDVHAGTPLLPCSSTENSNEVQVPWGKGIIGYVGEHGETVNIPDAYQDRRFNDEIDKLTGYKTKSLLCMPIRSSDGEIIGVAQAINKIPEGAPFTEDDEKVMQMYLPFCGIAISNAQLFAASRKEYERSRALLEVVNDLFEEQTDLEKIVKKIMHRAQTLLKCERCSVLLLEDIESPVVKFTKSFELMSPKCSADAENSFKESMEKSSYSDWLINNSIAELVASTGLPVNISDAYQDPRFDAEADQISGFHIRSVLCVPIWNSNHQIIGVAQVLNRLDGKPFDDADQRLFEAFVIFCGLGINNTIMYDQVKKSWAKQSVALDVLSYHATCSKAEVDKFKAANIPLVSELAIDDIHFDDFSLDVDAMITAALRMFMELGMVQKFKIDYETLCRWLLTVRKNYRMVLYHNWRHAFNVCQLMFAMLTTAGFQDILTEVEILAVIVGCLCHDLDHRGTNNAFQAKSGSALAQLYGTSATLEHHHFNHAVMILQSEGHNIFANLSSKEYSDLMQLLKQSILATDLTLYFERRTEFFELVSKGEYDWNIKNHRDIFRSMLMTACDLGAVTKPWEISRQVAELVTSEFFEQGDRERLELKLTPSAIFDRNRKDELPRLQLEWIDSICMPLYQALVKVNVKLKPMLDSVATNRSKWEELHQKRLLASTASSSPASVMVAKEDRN

## COc1ccc(C2CNC(=O)C2)cc1OC1CCCC1 (stereo not drawn) [Rolipram]
[1]; 10 μM, 48 hours, without androgens, p<0.01, read-out: level of average inhibition of cell proliferation
  inhibition at 10 µM: ~50%
[1]; end-point growth, concluded from 50% inhibition at 10 μM, read-out: IC50 of cell proliferation inhibition
  IC50: ~10 µM
[2]; [8]
  IC50: 1 µM
[2]; in vitro, read-out: in vitro IC50 for 50% inhibition of PDE4
  IC50: ~2 µM
[2]; read-out: IC50, PDE4
  IC50: 2 µM
[3]; 10 uM, 12-60 hours, without androgens, p<0.01, read-out: level of average inhibition of cell proliferation
  inhibition at 10 µM: ~50%
[3]; real-time growth, concluded from 50% inhibition at 10 uM, read-out: IC50 of cell proliferation inhibition
  IC50: ~10 µM

## CCc1ccc2c(-c3cccc(Cl)c3)nc(=O)n(CC)c2n1 [YM976]
[4]
  emetogenic activity: low emetogenic activity
[2]; read-out: IC50, PDE4
  IC50: 0.0022 µM

## CCCn1c(=O)c(C)cn2nc(N)nc12 [ICI63197]
[5]
  IC50: 0.035 µM
[2]; [8]
  IC50: 0.035 µM

## CCOC(=O)c1c(C)nn(-c2cccc([N+](=O)[O-])c2)c1C [Phosphodiesterase 4 Inhibitor]
PDEXA
  IC50: 6.9 µM
PDEIXA
  IC50: > 30 µM
PDEVA
  IC50: > 30 µM
PDEXIA
  IC50: > 30 µM
PDEVIIB
  IC50: > 30 µM
[2]; [8]
  IC50: 0.033 µM
PDEIIIB
  IC50: > 30 µM
PDEVIIIA
  IC50: > 30 µM
PDEIB
  IC50: > 30 µM
PDEIIA
  IC50: > 30 µM

## COc1ccc(C2CNC(=O)NC2)cc1O[C@H]1C[C@@H]2CC[C@H]1C2 [CP80633]
Lung PDE2
  IC50: > 100 µM
[6]
  hydrolysis of cAMP in blood cells: inhibits hydrolysis of cAMP
Human lung PDE4
  IC50: 1.9 µM
  PDE4 isozyme selectivity: no significant PDE4 isozyme selectivity
Heart PDE3
  IC50: > 100 µM
Platelet PDE-V
  IC50: > 100 µM
[2]; [8]
  IC50: 1.9 µM
Lung PDE1
  IC50: > 100 µM
[7]
  anti-inflammatory and bronchodilatory effects: anti-inflammatory and bronchodilatory effects in vivo
